Experiments:
[1] = dog PK experiment; settings: in vivo; for bioavailability: dog PK experiment, 3 mg/kg, read-out: F value (bioavailability); for AUC: dog, dosed at 3 mg/kg
Source text: Those of ordinary skill in the art are aware of the biological assays utililized to test the compounds of the invention. Regarding bioavailability data (F values), a more thorough explanation can be found in Rowland, M and Tozer, T Clinical Pharmacokinetics: Concepts and Applications Lippincott, Williams & Wilkins 3rd ed. 1995, (specifically covered on page 43).

[2] = tested on: HCV replicon with a D168V mutation in a 1a-H77 background; experiment: transient replicon assay, D168V mutation in 1a-H77 background; type: cell-based, hepatitis C virus (genotype 1a-H77); settings: Hepatitis C virus, read-out: EC50 in a transient replicon assay with a D168V mutation in a 1a-H77 background
Method in brief: (§1)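 Transient transfection of mutant replicon RNA (1a-H77 with NS2–NS5B, or 1b-N with NS3–NS5B plus E1202G/S2204I) by electroporation into IFN-cured Huh7 cells, plated at 7.5×10^3 cells per well in DMEM with 5% FBS. Serial compound dilutions added 4 h post-transfection (0.5% DMSO final).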

[3] = tested on: HCV replicon with a R155K mutation in a 1a-H77 background; experiment: transient replicon assay, R155K mutation in 1a-H77 background; type: cell-based, hepatitis C virus (genotype 1a-H77); settings: Hepatitis C virus, read-out: EC50 in a transient replicon assay with a R155K mutation in a 1a-H77 background
Method in brief: as §1

[4] = tested on: HCV replicon with a D168E mutation in a 1a-H77 background; experiment: transient replicon assay, D168E mutation in 1a-H77 background; type: cell-based, hepatitis C virus (genotype 1a-H77); settings: Hepatitis C virus, read-out: EC50 in a transient replicon assay with a D168E mutation in a 1a-H77 background
Method in brief: as §1

Structure (SMILES) | bioavailability [1] [%] | AUC [1] [ng·h/mL] | EC50 [2] [nM] | EC50 [3] [nM] | EC50 [4] [nM]
Cc1cc(C(=O)N[C@H]2CCCCC/C=C\[C@@H]3C[C@@]3(C(=O)NS(=O)(=O)C3CC3)NC(=O)[C@@H]3C[C@@H](Oc4nc5ccccc5nc4C(C)(F)F)CN3C2=O)no1 [Example 2, N-((2R,6S,13aS,14aR,16aS,Z)-14a-(cyclopropylsulfonylcarbamoyl)-2-(3-(1,1-difluoroethyl)quinoxalin-2-yloxy)-5,16-dioxo-1,2,3,5,6,7,8,9,10,11,13a,14,14a,15,16,16a-hexadecahydrocyclopropa[e]pyrrolo[1,2-a][1,4]diazacyclopentadecin-6-yl)-5-methylisoxazole-3-carboxamide] | > 100 | 4500 | 25 to 50 | < 1 | < 3
Cc1cc(C(=O)N[C@H]2CCCCC/C=C\[C@@H]3C[C@@]3(C(=O)NS(=O)(=O)C3CC3)NC(=O)[C@@H]3C[C@@H](Oc4nc5ccccc5nc4C(F)(F)F)CN3C2=O)no1 [Example 10, N-((2R,6S,13aS,14aR,16aS,Z)-14a-(cyclopropylsulfonylcarbamoyl)-5,16-dioxo-2-(3-(trifluoromethyl)quinoxalin-2-yloxy)-1,2,3,5,6,7,8,9,10,11,13a,14,14a,15,16,16a-hexadecahydrocyclopropa[e]pyrrolo[1,2-a][1,4]diazacyclopentadecin-6-yl)-5-methylisoxazole-3-carboxamide] | > 100 | 27000 | 25 to 50 | < 1 | < 3
O=C(N[C@H]1CCCCC/C=C\[C@@H]2C[C@@]2(C(=O)NS(=O)(=O)C2CC2)NC(=O)[C@@H]2C[C@@H](Oc3nc4ccccc4nc3C(F)(F)F)CN2C1=O)c1ccon1 [Example 15, N-((2R,6S,13aS,14aR,16aS,Z)-14a-(cyclopropylsulfonylcarbamoyl)-5,16-dioxo-2-(3-(trifluoromethyl)quinoxalin-2-yloxy)-1,2,3,5,6,7,8,9,10,11,13a,14,14a,15,16,16a-hexadecahydrocyclopropa[e]pyrrolo[1,2-a][1,4]diazacyclopentadecin-6-yl)isoxazole-3-carboxamide] | > 100 | 3300 | – | – | –
Cc1onc(C(=O)N[C@H]2CCCCC/C=C\[C@@H]3C[C@@]3(C(=O)NS(=O)(=O)C3CC3)NC(=O)[C@@H]3C[C@@H](Oc4nc5ccccc5nc4C(F)(F)F)CN3C2=O)c1C [Example 16, N-((2R,6S,13aS,14aR,16aS,Z)-14a-(cyclopropylsulfonylcarbamoyl)-5,16-dioxo-2-(3-(trifluoromethyl)quinoxalin-2-yloxy)-1,2,3,5,6,7,8,9,10,11,13a,14,14a,15,16,16-hexadecahydrocyclopropa[e]pyrrolo[1,2-a][1,4]diazacyclopentadecin-6-yl)-4,5-dimethylisoxazole-3-carboxamide] | 66 | 2100 | < 25 | < 1 | < 3
Cc1cc(C(=O)N[C@H]2CCCCC/C=C\[C@@H]3C[C@@]3(C(=O)NS(=O)(=O)C3CC3)NC(=O)[C@@H]3C[C@@H](Oc4nc5cc(F)ccc5nc4C)CN3C2=O)no1 [Example 22, N-((2R,6S,13aS,14aR,16aS,Z)-14a-(cyclopropylsulfonylcarbamoyl)-2-(7-fluoro-3-methylquinoxalin-2-yloxy)-5,16-dioxo-1,2,3,5,6,7,8,9,10,11,13a,14,14a,15,16,16a-hexadecahydrocyclopropa[e]pyrrolo[1,2-a][1,4]diazacyclopentadecin-6-yl)-5-methylisoxazole-3-carboxamide] | > 100 | 54000 | 25 to 50 | 1 to 10 | 3 to 20
Cc1cc(C(=O)N[C@H]2CCCCC/C=C\[C@@H]3C[C@@]3(C(=O)NS(=O)(=O)C3(C)CC3)NC(=O)[C@@H]3C[C@@H](Oc4nc5cc(F)ccc5nc4C)CN3C2=O)no1 [Example 23, N-((2R,6S,13aS,14aR,16aS,Z)-2-(7-fluoro-3-methylquinoxalin-2-yloxy)-14a-(1-methylcyclopropylsulfonylcarbamoyl)-5,16-dioxo-1,2,3,5,6,7,8,9,10,11,13a,14,14a,15,16,16a-hexadecahydrocyclopropa[e]pyrrolo[1,2-a][1,4]diazacyclopentadecin-6-yl)-5-methylisoxazole-3-carboxamide] | 86 | 201000 | < 25 | 1 to 10 | 3 to 20
Cc1cc(C(=O)N[C@H]2CCCCC/C=C\[C@@H]3C[C@@]3(C(=O)NS(=O)(=O)C3CC3)NC(=O)[C@@H]3C[C@@H](Oc4nc5c(F)cccc5nc4C)CN3C2=O)no1 [Example 56, N-((2R,6S,13aS,14aR,16aS,Z)-14a-(cyclopropylsulfonylcarbamoyl)-2-(8-fluoro-3-methylquinoxalin-2-yloxy)-5,16-dioxo-1,2,3,5,6,7,8,9,10,11,13a,14,14a,15,16,16a-hexadecahydrocyclopropa[e]pyrrolo[1,2-a][1,4]diazacyclopentadecin-6-yl)-5-methylisoxazole-3-carboxamide] | > 100 | 10800 | 50 to 250 | 1 to 10 | 20 to 50
Cc1cc(C(=O)N[C@H]2CCCCC/C=C\[C@@H]3C[C@@]3(C(=O)NS(=O)(=O)C3(C)CC3)NC(=O)[C@@H]3C[C@@H](Oc4nc5cc(F)cc(Br)c5nc4C)CN3C2=O)no1 [Example 101, N-((2R,6S,13aS,14aR,16aS,Z)-2-(5-bromo-7-fluoro-3-methylquinoxalin-2-yloxy)-14a-(1-methylcyclopropylsulfonylcarbamoyl)-5,16-dioxo-1,2,3,5,6,7,8,9,10,11,13a,14,14a,15,16,16a-hexadecahydrocyclopropa[e]pyrrolo[1,2-a][1,4]diazacyclopentadecin-6-yl)-5-methylisoxazole-3-carboxamide] | > 100 | 84000 | < 25 | < 1 | 3 to 20
Cc1cc(C(=O)N[C@H]2CCCCC/C=C\[C@@H]3C[C@@]3(C(=O)NS(=O)(=O)C3CC3)NC(=O)[C@@H]3C[C@@H](Oc4nc5cc(F)ccc5nc4C(F)(F)F)CN3C2=O)no1 [Example 107, N-((2R,6S,13aS,14aR,16aS,Z)-14a-(cyclopropylsulfonylcarbamoyl)-2-(7-fluoro-3-(trifluoromethyl)quinoxalin-2-yloxy)-5,16-dioxo-1,2,3,5,6,7,8,9,10,11,13a,14,14a,15,16,16a-hexadecahydrocyclopropa[e]pyrrolo[1,2-a][1,4]diazacyclopentadecin-6-yl)-5-methylisoxazole-3-carboxamide] | 74 | 54000 | < 25 | < 1 | < 3
Cc1cc(C(=O)N[C@H]2CCCCC/C=C\[C@@H]3C[C@@]3(C(=O)NS(=O)(=O)C3(C)CC3)NC(=O)[C@@H]3C[C@@H](Oc4nc5cc(F)ccc5nc4C(F)(F)F)CN3C2=O)no1 [Example 111, N-((2R,6S,13aS,14aR,16aS,Z)-2-(7-fluoro-3-(trifluoromethyl)quinoxalin-2-yloxy)-14a-(1-methylcyclopropylsulfonylcarbamoyl)-5,16-dioxo-1,2,3,5,6,7,8,9,10,11,13a,14,14a,15,16,16a-hexadecahydrocyclopropa[e]pyrrolo[1,2-a][1,4]diazacyclopentadecin-6-yl)-5-methylisoxazole-3-carboxamide] | 88 | 141000 | < 25 | < 1 | < 3
Cc1cc(C(=O)N[C@H]2CCCCC/C=C\[C@@H]3C[C@@]3(C(=O)NS(=O)(=O)C3CC3)NC(=O)[C@@H]3C[C@@H](Oc4nc5cc(F)ccc5nc4C(C)(F)F)CN3C2=O)no1 [Example 117, N-((2R,6S,13aS,14aR,16aS,Z)-14a-(cyclopropylsulfonylcarbamoyl)-2-(3-(1,1-difluoroethyl)-7-fluoroquinoxalin-2-yloxy)-5,16-dioxo-1,2,3,5,6,7,8,9,10,11,13a,14,14a,15,16,16a-hexadecahydrocyclopropa[e]pyrrolo[1,2-a][1,4]diazacyclopentadecin-6-yl)-5-methylisoxazole-3-carboxamide] | 63 | 63000 | < 25 | < 1 | < 3
Cc1cc(C(=O)N[C@H]2CCCCC/C=C\[C@@H]3C[C@@]3(C(=O)NS(=O)(=O)C3(C)CC3)NC(=O)[C@@H]3C[C@@H](Oc4nc5cc(F)ccc5nc4C(C)(F)F)CN3C2=O)no1 [Example 119, N-((2R,6S,13aS,14aR,16aS,Z)-2-(3-(1,1-difluoroethyl)-7-fluoroquinoxalin-2-yloxy)-14a-(1-methylcyclopropylsulfonylcarbamoyl)-5,16-dioxo-1,2,3,5,6,7,8,9,10,11,13a,14,14a,15,16,16a-hexadecahydrocyclopropa[e]pyrrolo[1,2-a][1,4]diazacyclopentadecin-6-yl)-5-methylisoxazole-3-carboxamide] | 64 | 30000 | < 25 | < 1 | < 3

Source: patent US9493506B2 (Enanta Pharmaceuticals, Inc., priority 2010, dated 2016)
